“Also recorded” adds a separate entry of the source. Read-outs that look alike come from different tables or passages of the source.
Assays:
[1] = system: fibrin; assay: Reversibility (displacement) of 125I-11 kDa FBP binding to fibrin; conditions: negative control
Procedure: Detachable microtiter wells previously coated with 15 ng of fibrin were incubated with 100 ng/0.1 ml FBB (90 nM) of ^125 I-11 kDa for 1 hour at 22° C. The unbound radiolabeled protein was removed by extensive washing with FBB containing 0.1% Tween 20. […] The iodinated 11 kDa that remained bound to the removable wells was determined by quantitating the radioactivity attached to the individual wells in a gamma counter. Results were expressed as percentage of control wells incubated with buffer alone.

[2] = system: fibrin; assay: Binding of 35S-methionine labeled recombinant proteins (COS cell supernatants) to fibrin-SEPHAROSE, autoradiogram quantitation
Text: Recombinant proteins from both the N-terminal and C-terminal fibrin binding sites of the Fn molecule were expressed by transfection into ^35 S-labeled (methionine) COS cells, as described by Schwarzbauer, J. Cell Biol., 113:1463-1473 and Sottile et al, J. Biol. Chem., 266:12840-12843, (1991) and their fibrin-binding activity determined by affinity chromatography experiment. The ^35 S-methionive labeled protein from the N-terminal site was a 10.5 kDa protein that comprised the ^4 F1.^5 F1 modules (^4 F1.^5 F1). The ^35 S-methionive labeled 25 kDa recombinant protein from the C-terminal fibrin binding site of Fn expressed by the COS cells commenced in the ^10 F1 and extended to the end of the molecule (^10 F1-end). For the affinity chromatography experiments each of the cell culture supernatants that contained the separately expressed proteins (1.5 ml) were combined with 0.4 ml of a fibrin-SEPHAROSE affinity matrix and incubated overnight at 4 C. with end over rotation. Upon removal of the supernatant by centrifugation, the matrices were washed extensively with FBB (10 times with a 0.5 ml wash volume each ); after each wash the matrices were centrifuged and the supernatants removed. […] Aliquots (50 ul) of each fraction was counted in a LS 6000 Scintilation Counter, the corresponding fractions pooled, and analyzed by SDS-PAGE followed by autoradiography. The autoradiograms were exposed for two weeks and scanned with a pdi Desktop Scanner. […] As a control, to indicate the relative level of expression of the recombinant proteins and to confirm their position in the autoradiograms, an aliquot of each COS cell culture supernatant was immunoprecipited with an anti-fibronectin antibody and compared with the ^35 S-labeled proteins retained by the fibrin affinity chromatography matrices by SDS-PAGE and autoradiography. […] The Protein A-Sepharose beads were separated by centrifugation, washed two times with Tris-buffered saline, resuspended in Laemmli sample buffer and applied to SDS-PAGE.
FIG. 30 illustrates the binding of ^35 S-methionine labeled recombinant modules from both the N- (^4 F1.^5 F1) and C-terminal (^10 F1-end) fibrin binding sites of Fn to fibrin-SEPHAROSE affinity matrices. […] The results of the autoradiograms are represented by the graphs which indicate the image analysis of the bound recombinant proteins.

[3] = system: fibrin; assay: Fibrin-SEPHAROSE affinity chromatography (binding and elution); design: species or system bovine
Procedure: Bovine fibrinogen was cross-linked to CNBr-activated SEPHAROSE™ (5 mg/ml beads) according to the manufacturer's instructions. Coupled fibrinogen was subsequently converted to fibrin by incubation with human thrombin to a final concentration of 5 NIH units/ml and 100 K.I. (kallikrein inhibitory) units/ml of aprotinin (in 0.05M Tris-HCI buffer, pH 7.6, containing 0.1M NaCl and 0.01M EDTA) for three hours, at room temperature (Gold, et al. (1983) Biochemistry 22, 4113-4119).
1.0M NaCl in 0.05M tris buffer, pH 8.0.
The fibrin-binding activity of the proteolytically derived 25.9 kDa fragment of Fn was determined by its ability to bind to a fibrin affinity matrix. […] FBB was used to equilibrate and wash the column. Following warming of the column to 22° C., the column was washed with FBB until absorbance at 280 nm (A280) was less than 0.01, and bound protein eluted with 0.05M Tris-HCl, 0.5M NaCl, 6M urea buffer, pH 7.6.
The module (500 μg/1.0 ml) was incubated for 4 hours (while rotating) at 4° C. in the presence of 1.0 ml fibrin-SEPHAROSE™ (5 mg fibrin/ml SEPHAROSE™ beads) equilibrated in […] Tris-HCl, 0.1M NaCl buffer, pH 7.6.
The 11 KDa peptide (50 μg/0.206 ml) was radiolabeled using the IODO-BEAD method (Pierce Chemical). The peptide was added to one IODO-BEAD in the presence of 100 μCi ^125 I (17.4 Ci/mg, New England Nuclear) and incubated on ice for 10 minutes. The bead was removed and the free ^125 I removed by chromatography through a PD10 column containing SEPHADEX™ G-25 (Pharmacia). […] The radioiodinated 11 kDa fibrin-binding peptide (500 μg/1.5 ml) was combined with 1 ml of fibrin-SEPHAROSE™ (5 mg fibrin/ml beads) equilibrated with 50 mM Tris-HCl, 0.1M NaCl buffer, pH 7.6, and rotated for 4 hours, at 4° C. The mixture was poured onto a disposable column (0.6 cm×8.0) and the unbound protein washed through. The column was equilibrated to room temperature and washed with the equilibration buffer.

[4] = system: fibrin; conditions: for IC50: read-out: IC50, 50% inhibition of binding of biotinylated Fn to fibrin, 200 ng fibrin, 1 hour 22° C.
Procedure: Since the anti-Fn detection system described for the ELISA above could not be used in Fn competition assays employing the intact Fn molecule or the 25.8 kDa proteolytic fragment, purified Fn was biotinylated using water soluble NHS-LC-Biotin (Pierce Chemm. Co.; according to the manufacturer's instructions) and binding to fibrin detected by alkaline phosphatase conjugated streptavidin (diluted 1/500 in FBBT/BSA) for 1 hour at 22° C., followed by the addition of p-nitrophenyl phosphate, as described above. To ensure that the biotinylation of the Fn had not affected its ability to bind to fibrin, fibrin-binding activity was tested by incubating increasing concentrations of biotinylated Fn (10-300 ng/0.1 ml FBB) with the fibrin-coated wells (200 ng) and detected (see FIG. 28A) using alkaline phosphatase-conjugated streptavidin and the reaction developed as described for Direct Elisa.
To compare the relative fibrin-binding affinities of the ^4 F1.^5 F1 recombinant module pair and the 25.9 kDa proteolytic fragment (^1 F1-^5 F1) with that of the native Fn molecule, these purified proteins were competed with biotinylated plasma Fn for binding to fibrin coated wells and the extent of inhibition of binding assessed by incubation with alkaline phosphatase-conjugated streptavidin. […] Biotinylated Fn (100 ng/0.1 ml FBB: 2.3 nM) was combined with increasing concentrations (0-10 μM) of either unlabeled Fn, the 25.9 kDa proteolytic fragment, or the separate ^4 F1.^5 F1, and ^10 F1 recombinant modules and incubated with the fibrin-coated microtiter wells for 1 hour at 22° C. […] Bound biotinylated Fn was quantitated as described above.

[5] = system: fibrin; assay: ELISA: competitive inhibition of fibronectin binding to fibrin by type 1 recombinant modules; conditions: for maximum inhibition of Fn binding to fibrin: saturating concentration
Procedure: Fibrin-binding activity was also assessed by an ELISA. Fn was reacted with fibrin-coated microtiter plates and bound Fn was determined by incubation with a polyclonal rabbit anti-Fn antiserum followed by alkaline phosphatase-labeled anti-rabbit Ig. […] Thus, on a mole-per-mole basis, assuming complete attachment of all the fibrinogen applied to the polystyrene plate, total proteolytic conversion to fibrin, and accessibility of the binding sites, 0.8 moles of Fn per mole of fibrin were required to achieve maximum binding (assuming a molecular weight of 340 kDa for the fibrin hexamer and 440 kDa for the Fn dimer).
The recombinant Fn modules were used to inhibit the binding of Fn to the fibrin-coated microtiter plates. […] At this saturating concentration, the binding of Fn to fibrin was inhibited by 70%.

[6] = system: fibrin; assay: Direct binding ELISA on fibrin-coated microtiter plates; conditions: for binding to fibrin-coated wells: ELISA, room temperature, 1 hr
Procedure: The preparation of fibrin coated microtiter plates was adapted from a method described by Christman et al., Biochim. Biophys. Acta. […] Microtiter (Immulon) plates were coated with fibrinogen at a concentration of 50-1000 ng/well/0.1 ml of Tris buffered saline (TBS). The plates were dried for 24 hours at 37° C. and 0.1 ml of thrombin (20 NIH units/100 ml) containing TRASYLOL™ (aprotinin) (400 K.I units/100 ml) in TBS was added to each well and the plates incubated for 2 hours at 37° C. Each well is washed one time with PBS and the plates are blocked for 1.5 hours with 1% BSA in TBS to prevent non-specific binding. A constant concentration of fibronectin and the 11 kDa fibrin-binding polypeptide (500 ng/0.1 ml) in 50 mM Tris-HCl, 0.1M NaCl, pH 7.6 (FBB) were incubated separately with fibrin coated microtiter wells (50-1000 ng) for 1 hr at room temperature (23° C.).
The wells were washed three times with FBB containing 0.05% Tween 20 (FBBT) and incubated for 1 hour with 0.05 ml of the a polyclonal anti-fibronectinantiserum (Calbiochem) or the purified IgG fraction of anti-11 kDa rabbit antisera, respectively, at a concentration of 1 μg/ml in FBBT containing 0.1% BSA (FBBT/BSA). Following three washes with FBBT, the wells were incubated with 0.05 ml of alkaline phosphatase labeled goat anti-rabbit IgG (TAGO) at a concentration of 2 μg/ml in FBBT/BSA, for 1 hour. The reaction was developed with 0.05 ml of […] p-nitrophenyl phosphate (Sigma phosphatase substrate tablets) in 10% diethanolamine, pH 9.8 containing 1 mM MgCl2.
2. […] Binding of ^4 F1.^5 F1 to fibrin coated microtiter plates was examined by ELISA as described above. Microtiter wells were coated with fibrin (50-1000 ng) and blocked, as described earlier, and incubated with the module pair ^4 F1.^5 F1 (500 ng/0.1 ml or 1000 ng/0.1 ml in FBB) for 1 hour, at room temperature.
Fibrin-binding activity was also assessed by an ELISA. Fn was reacted with fibrin-coated microtiter plates and bound Fn was determined by incubation with a polyclonal rabbit anti-Fn antiserum followed by alkaline phosphatase-labeled anti-rabbit Ig.

[7] = 35S-methionine labeled, optical density of autoradiogram

Substance: egg lysozyme: unrelated protein employed as negative control
- displacement of bound 125I-11 kDa FBP [1]: unable to disrupt; also recorded: unable to displace

Substance: ^10 F1-end: 25 kDa recombinant protein from COS cells commencing in the tenth type 1 module and extending to the end of fibronectin
- relative affinity for fibrin [2]: higher relative affinity
- % of bound protein released by warming to 22° C. [2, 7]: 35%
- % of bound protein requiring 6M urea in 0.5M NaCl for elution [2, 7]: 65%

Substance: ^10 F1: recombinant 46 amino acid tenth type 1 module from human fibronectin, residues 2141-2186 of SEQ ID NO:1 [reference compound]
- binding to fibrin-Sepharose [3]: did not bind
- fibrin binding as single module [4]: did not, as a single module, exhibit fibrin-binding
- inhibition of biotinylated Fn binding (non-fibrin-binding modules) ([4]; 0-10 μM competitor, biotinylated Fn 2.3 nM): 10%

Substance: ^7 F1: recombinant seventh type 1 module from human fibronectin, residues 434-484 of SEQ ID NO:1 [reference compound]
- inhibition of the binding of Fn to fibrin (non-binding modules) ([5]; up to 5,000-50,000 molar excess compared to Fn): < 20%
- binding to fibrin-Sepharose [3]: did not bind

Substance: fibronectin: purified intact human plasma fibronectin, 440 kDa dimer [reference compound]
- amount giving maximum binding per 550 ng of fibrin [6]: approximately 500 ng
- concentration at saturation of binding to fibrin ([6]; 200 ng Fn to 200 ng of fibrin (5.88 nM)): ~4.54 nM
- binding to fibrin-coated wells [6]: bound to the fibrin-coated wells in a concentration dependent manner
- moles per mole of fibrin required to achieve maximum binding ([6]; assuming 340 kDa fibrin hexamer, 440 kDa Fn dimer): 0.8
- concentration required for complete inhibition of biotinylated Fn binding ([4]; biotinylated Fn 2.3 nM): 2.2 µM
- molar excess required for complete inhibition ([4]; biotinylated Fn 2.3 nM): 1000
- IC50 ([4]; biotinylated Fn 2.3 nM): 20 nM

Substance: t-PA type 1 module: single type 1 module from tissue plasminogen activator (CRDEKTQMIYQQHQSWLRPVLRSNRVEYCWCNSGRAQCH) [reference compound]
- maximum inhibition of Fn binding to fibrin [5]: 55%

Substance: ^4 F1.^5 F1: recombinant 93 amino acid module pair, fourth and fifth type 1 modules of human fibronectin, residues 152-244 of SEQ ID NO:1
- binding to fibrin-coated wells [6]: bound to fibrin
- concentration at which maximum inhibition was achieved ([5]; Fn 2.3 nM): 10 µM
- molar excess at maximum inhibition ([5]; Fn 2.3 nM): 5,000
- molar excess over Fn at 50% inhibition ([5]; Fn 2.3 nM): 325
- IC50 ([5]; Fn 100 ng (2.3 nM), fibrin 200 ng, read-out: concentration decreasing Fn binding to fibrin to 50%): 750 nM
- maximum inhibition of Fn binding to fibrin [5]: 70%
- elution of protein remaining bound after warming to 22° C. with 1.0M urea and finally 2.0M urea [3]: eluted all the remaining bound
- elution of protein remaining bound after warming to 22° C. with 1.0M NaCl ([3]; 18% of total protein applied remained bound): could not be eluted
- % of protein applied eluted on warming the column to 22° C. (room temperature) ([3]; FBB buffer): 9%
- % of protein applied eluted with 0.5M NaCl, 6.0M urea buffer ([3]; after warming to 22° C.): 18%
- % of protein applied retained by fibrin-SEPHAROSE ([3]; binding at 4° C., 500 μg applied): 27%
- % of protein applied retained by fibrin-Sepharose with increasing amounts applied ([3]; increasing amounts applied to a fixed volume of fibrin-Sepharose): 25%
- relative affinity for fibrin [2]: lower affinity
- % of bound protein released by warming to 22° C. [2, 7]: 88%
- amount relative to antibody (w/w) used to obtain maximal inhibition [4]: 16 times
- blocked binding of fibronectin to fibrin (summary, FIG. 29) [4]: 36%
- maximal inhibition of biotinylated Fn binding to fibrin ([4]; 10 μM of protein (5,000 molar excess)): 67%
- maximum inhibition of Fn binding to fibrin (FIG. 29) ([4]; 0.1-25 μg inhibitor, biotinylated Fn 100 ng, fibrin 200 ng): 67%
- IC50 ([4]; biotinylated Fn 2.3 nM): 700 nM
